Tests used:
[1] = test system: larvae of cabbage moth (Plutella xylostera); assay: Insecticidal effect against larvae of cabbage moth (leaf immersion); format: in vivo
Experimental: Insecticidal Effect Against Larvae of Cabbage Moth (Plutella xylostera)
(§1) A piece of cabbage leaf (diameter: 6 cm) was immersed for 1 minute in a water-diluted solution of the insecticide (wettable powder) of the present invention prepared according to the prescription of Formulation Example 1. After immersion, the cabbage was air-dried and placed in a plastic cup (inner diameter: 7 cm), and then inoculated with 5 larvae of cabbage moth in the third stage therein (1-concentration, 2-repetion). The cup was allowed to stand in a room thermostated at 25° C. Four days after the inoculation, dead or alive larvae or suffuring larvae were counted, and mortality (%) was calculated wherein a suffering larva was regarded as 0.5 dead larva. When compounds of Compound Nos. described below were subjected to the test, the mortality was 100% in a compound concentration of 500 ppm. In the meanwhile, the Compounds Nos. correspond to ones in Tables 1 to 8.

[2] = test system: larvae of common cutworm (Spodoptera litura); assay: Insecticidal effect against larvae of common cutworm (leaf immersion); format: in vivo; conditions: in Brassica oleracea
Experimental: Insecticidal Effect Against Larvae of Common Cutworm (Spodoptera litura)
as §1, with “powder),of” for “powder) of”, “common cutworm” for “cabbage moth”

Row | SMILES | mortality at 500 ppm [1] | mortality at 500 ppm [2]
1 | CC(=NN(C)c1ccc(C(F)(F)F)cc1)C(=O)NCc1ccc(Cl)nc1 [Compound No. 110, N-(6-chloro-3-pyridylmethyl)-2-[N-methyl-N-(4-trifluoromethylphenyl) hydrazono]propionic acid amide] | 100% | 100%
2 | CC(=NN(C)c1ccc(C(F)(F)F)cc1)C(=O)NCc1ccc(Cl)cc1 [Compound No. 109, N-(4-chlorobenzyl)-2-[N-methyl-N-(4-trifluoromethylphenyl) hydrazono]propionic acid amide] | 100% | 100%
3 | CCOCC(=NNc1ccc(C(F)(F)F)cc1)C(=O)NCc1ccc(Cl)nc1 [Compound No. 170, N-(6-chloro-3-pyridylmethyl)-3-ethoxy-2-(4-trifluoromethylphenyl hydrazono) propionic acid amide] | 100% | 
4 | CC(=NNc1ccc(C(F)(F)F)cc1)C(=O)NCc1ccc(Cl)cc1 [Compound No. 62, N-(4-chlorobenzyl)-2-(4-trifluoromethylphenyl hydrazono) propionic acid amide] | 100% | 100%
5 | CNC(=NNc1ccc(C(F)(F)F)cc1)C(=O)NCc1ccc(Cl)nc1 [Compound No. 191, N-(6-chloro-3-pyridylmethyl)-2-methylamino-2-(4-trifluoromethylphenyl hydrazono) acetic acid amide] | 100% | 100%
6 | CC(=NNc1ccc(C(F)(F)F)cc1)C(=O)NCc1ccc(Cl)nc1 [Compound No. 63, N-(6-chloro-3-pyridylmethyl)-2-(4-trifluoromethylphenyl hydrazono) propionic acid amide] | 100% | 100%
7 | O=C(NCc1ccc(Cl)nc1)C(Cl)=NNc1ccc(C(F)(F)F)cc1 [Compound No. 5, N-(6-chloro-3-pyridylmethyl)-2-chloro-2-(4-trifluoromethylphenyl hydrazono) acetic acid amide] | 100% | 
8 | C/C(=N\Nc1ccc(Cl)cc1)C(=O)NNc1ccc(Cl)cc1 [Compound No. 104, (E)-N′-(4-chlorophenyl)-2-(4-chlorophenyl hydrazono) propionic acid hydrazide] | 100% | 100%
9 | C/C(=N/Nc1ccc(Cl)cc1)C(=O)NNc1ccc(Cl)cc1 [Compound No. 105, (Z)-N′-(4-chlorophenyl)-2-(4-chlorophenyl hydrazono) propionic acid hydrazide] | 100% | 100%
10 | N#CC(=NNc1ccc(C(F)(F)F)cc1)C(=O)NCc1ccc(Cl)nc1 [Compound No. 184, N-(6-chloro-3-pyridylmethyl)-2-cyano-2-(4-trifluoromethylphenyl hydrazono) acetic acid amide] | 100% | 100%
11 | COc1ccc(CNC(=O)C(C)=NNc2ccc(Cl)cc2)cc1 [Compound No. 93, N-(4-methoxybenzyl)-2-(4-chlorophenyl hydrazono) propionic acid amide] | 100% | 
